Measured values published in patent US11161864B2, “Sting agonists” (Venenum Biodesign, LLC, priority 2018, dated 2021).
Like-named read-outs stand apart in the source and are kept apart here.

Tests used:
[1] = molecular target: murine STING protein (amino acids 154-378) (Mus musculus (Mouse), UniProt Q3TBT3); test: Murine STING [3H] 2′,3′-cGAMP scintillation proximity competition binding assay
[2] = molecular target: AQ variant of truncated human STING protein, amino acids 155-379 (Homo sapiens (Human), UniProt Q86WV6, G230A/H232R/R293Q); test: Human AQ STING [3H] 2′,3′-cGAMP scintillation proximity competition binding assay
Description: (§1) A human STING [^3H] 2′,3′-cGAMP scintillation proximity competition binding assay was utilized to detect binding of compounds to STING protein. […] The protein encoding plasmid contained a HIS tag, followed by an Avi tag and then a SUMO tag, which were followed by the STING coding sequence within the pET-28a (+) vector. The plasmid was transfected into a BL21 (DE3)/BirA E. coli co-expression strain. Protein was purified from the bacterial lysate using a cobalt-affinity column. The purified protein was dialyzed against PBS and then 20% glycerol was added prior to storage at −80° C.
(§2) 2′,3′-cGAMP in assay buffer (50 mM Tris pH 7.5, 100 mM NaCl, 0.1% Fatty Acid Free BSA). Test compounds (2.5 μL) were added to the plate first followed by a 25 μL mixture of STING protein, streptavidin PVT SPA beads (Perkin Elmer) and 10 μL [^3H] 2′,3′-cGAMP. Plates were incubated at room temperature for 18 hrs and read on a Wallac MicroBeta TriLux (Perkin Elmer).

[3] = molecular target: wild-type (WT) truncated human STING protein, amino acids 155-379 (Homo sapiens (Human), UniProt Q86WV6, H232R); test: Human WT STING [3H] 2′,3′-cGAMP scintillation proximity competition binding assay
Description: as §1, §2

[4] = system: STING pathway, THP1 cells; test: Human IFN-α/β induction assay (THP1 supernatants on HEK-Blue IFN-α/β reporter cells); format: cell-based; settings: THP1 cells 5 hrs, HEK-Blue reporter cells 24 hrs
Description: Genetically engineered human type-1 Interferons (IFN-α/β) sensor cells-HEK Blue™ IFNα/β cells (Invivogen) were employed to measure the type-1 IFNs produced by THP1 cells that are treated with activators of STING. The human embryonic (HEK) Blue™ cells are specially designed to monitor the activation of JAK/STAT pathway induced by type 1 IFNs. Briefly, THP1 cells are treated with compounds for 5 hrs. In the second step, supernatants of THP1 cells are transferred to HEK Blue™ IFNα/β reporter cells and incubated for 24 hrs. The secreted embryonic alkaline phosphatase (SEAP) activity in the supernatants of HEK blue IFNα/3 reporter cells is measured and used to determine the quantities of IFNs.
HEK-Blue IFN-α/β reporter cells (Invivogen) were used to measure the secretion of IFN-α/β into culture supernatants of THP1 cells following STING pathway activation. In the first step, THP1 cells were cultured in presence of STING activators for 5 hrs at 37° C., in a 5% CO2 tissue culture incubator, which facilitates the release of IFN-α/β into the supernatants. In the second step, cell supernatants from THP1 cells were transferred to HEK-Blue IFN-α/β reporter cells and incubated at 37° C., in a 5% CO2 incubator for 24 hrs. HEK-Blue IFN-α/β reporter cells are specifically designed to monitor the activation of JAK-STAT pathway activation by type 1 IFNs. These cells express a secreted embryonic alkaline phosphatase (SEAP) reporter gene under the control of ISG54 promoter, which is a well-known interferon stimulatory gene activated by type 1 IFNs. Upon IFN-α/β stimulation, HEK-Blue IFN-α/β reporter cells activate the JAK-STAT pathway and subsequently the expression of the reporter gene. SEAP which is secreted in the supernatant is easily detectable using alkaline phosphatase detection medium (Quanti-Blue reagent from Invivogen).
These assays were run by adding 2 μL of compound stock solution to tissue culture treated 384-well plates with electronic pipettes. Compounds were diluted in autoclaved sterile water, initially spotted on the intermediate dilution plate and then to the assay plate. […]

[5] = system: STING signaling, RAW-Dual reporter cells; test: Measurement of mouse IFN-β (ELISA); format: cell-based
Description: Mouse Interferon-β (IFN-β) in the supernatants of murine macrophages treated with STING activators was quantified using sandwich enzyme linked immunosorbent assay (ELISA). Briefly, IFN-β binds to plates coated with antibody and detection is accomplished using a detection antibody followed by streptavidin conjugated to horseradish peroxidase. Tetramethyl-benzidine is used as the substrate in this kit (PBL Assay Science). […] In this invention, mouse IFN-β ELISA is used to determine the potency of compound on STING pathway activation in mouse macrophages.
Murine macrophage derived cell line RAW-Dual reporter cells (Invivogen) were used to measure the IFN-β produced by STING signaling activation. Briefly, 20,000 cells in 27 μL were seeded into tissue culture treated 384-well plate that contained 3 μL of test compound. Cells were incubated at 37° C., in a 5% CO2 incubator for 5.5 hours. Supernatants from treated cells were diluted 20-fold and prior to measurement of IFN-β levels using ELISA kit (PBL Assay Science). 100 μL of diluted sample was added to ELISA plate. Plates were incubated at RT for 1 hour with shaking at 650 rpm. Post incubation, samples were aspirated from wells and the wells were washed 4 times. Diluted antibody (50 μL) was added to plates and incubated at RT for 30 minutes with shaking, followed by aspiration of antibody and 4× washes. Diluted HRP (horseradish peroxidase) solution (50 μL) was added and incubated for 10 minutes, followed by aspiration of the solution and 4× wash steps. After the final wash steps, plates were incubated with 100 μL of TMB (tetramethyl benzidine) substrate for 10 minutes, followed by addition of 100 μL of stop solution and plates were read on Envision plate reader for optical density.

CT-26 tumor = CT-26 tumor bearing mice, intra-tumoral treatment and re-challenge; settings: 50 μg intra-tumoral Days 0, 3, 7
[6] = read-out: Human AQ Binding IC50
[7] = read-out: Human WT Binding IC50

Sequence of wild-type (WT) truncated human STING protein, amino acids 155-379 (Q86WV6 155-379 H232R): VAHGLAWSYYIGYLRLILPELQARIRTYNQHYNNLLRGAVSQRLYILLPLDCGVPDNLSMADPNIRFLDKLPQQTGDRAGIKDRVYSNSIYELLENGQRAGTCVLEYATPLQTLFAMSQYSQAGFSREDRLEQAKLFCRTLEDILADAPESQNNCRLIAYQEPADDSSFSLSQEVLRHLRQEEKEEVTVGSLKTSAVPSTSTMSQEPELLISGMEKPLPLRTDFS
Sequence of murine STING protein (amino acids 154-378) (Q3TBT3 154-378): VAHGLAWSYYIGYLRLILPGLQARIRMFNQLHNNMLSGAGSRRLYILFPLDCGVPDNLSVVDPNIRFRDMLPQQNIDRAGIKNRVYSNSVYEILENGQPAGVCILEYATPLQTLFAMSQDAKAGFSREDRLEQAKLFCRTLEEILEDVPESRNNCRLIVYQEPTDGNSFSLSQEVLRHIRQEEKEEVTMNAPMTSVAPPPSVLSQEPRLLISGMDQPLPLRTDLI
Sequence of AQ variant of truncated human STING protein, amino acids 155-379 (Q86WV6 155-379 G230A/H232R/R293Q): as the sequence (Q86WV6 155-379 H232R) above, with G76A, R139Q counted along it

| SMILES | IC50 ([1]; read-out: Murine Binding IC50) [nM] | IC50 [2, 6] [nM] | IC50 [3, 7] [µM] | also measured |
| --- | --- | --- | --- | --- |
| CO[C@H]1[C@H]2OP(=O)(S)OCc3nc4cncnc4n3CCOP(=O)(S)OC[C@H]1O[C@H]2n1cnc2c(=O)[nH]c(N)nc21 (single isomer, unassigned) [Example 27D] | < 1000 | < 1000 | 1 to 9.99 | – |
| Nc1nc2c(ncn2[C@@H]2O[C@@H]3COP(=O)(S)OCCn4c(nc5c(N)ncnc54)COP(=O)(S)O[C@@H]2[C@@H]3F)c(=O)[nH]1 (single isomer, unassigned) [Example 7D] | < 1000 | < 1000 | 1 to 9.99 | – |
| Nc1nc2c(ncn2[C@@H]2O[C@@H]3COP(=O)(S)OCCn4c(nc5cncnc54)COP(=O)(S)O[C@@H]2[C@@H]3F)c(=O)[nH]1 (single isomer, unassigned) [Example 1D] | – | < 1000 | – | EC50 ([4]; Homo sapiens, THP-1): < 5 µM; EC50 [5]: > 5 µM |
| Nc1nc2c(ncn2[C@@H]2O[C@@H]3COP(=O)(O)OCCn4c(nc5cncnc54)COP(=O)(O)O[C@@H]2[C@@H]3F)c(=O)[nH]1 [Example 4, (1S,21R,23R,24R)-23-(2-Amino-6-oxo-6,9-dihydro-1H-purin-9-yl)-24-fluoro-3,18-dihydroxy-2,4,17,19,22-pentaoxa-7,10,12,14-tetraaza-3lambda5,18lambda5-diphosphatetracyclo[19.2.1.06,14.08,13]tetracosa-6,8(13),9,11-tetraene-3,18-dione] | < 1000 | 1000 to 9990 | 10 to 100 | – |
| Nc1nc2c(ncn2[C@@H]2O[C@@H]3COP(=O)(S)OCCn4c(nc5c(N)ncnc54)COP(=O)(S)O[C@@H]2[C@@H]3F)c(=O)[nH]1 (single isomer, unassigned) [Example 7B] | < 1000 | 1000 to 9990 | 10 to 100 | – |
| CO[C@H]1[C@H]2OP(=O)(S)OCc3nc4cncnc4n3CCOP(=O)(S)OC[C@H]1O[C@H]2n1cnc2c(=O)[nH]c(N)nc21 (single isomer, unassigned) [Example 27B] | < 1000 | 1000 to 9990 | 10 to 100 | – |
| Nc1nc2c(ncn2[C@@H]2O[C@@H]3COP(=O)(S)OCCCn4c(nc5cncnc54)COP(=O)(S)O[C@@H]2[C@@H]3O)c(=O)[nH]1 (stereo partly drawn) [Example 9, (1R,22R,24R,25R)-24-(2-Amino-6-oxo-6,9-dihydro-1H-purin-9-yl)-25-hydroxy-3,19-disulfanyl-2,4,18,20,23-pentaoxa-7,10,12,14-tetraaza-3lambda5,19lambda5-diphosphatetracyclo[20.2.1.06,14.08,13]pentacosa-6,8,10,12-tetraene-3,19-dione] | 1000 to 9990 | 1000 to 9990 | 10 to 100 | – |
| Nc1nc2ncn([C@@H]3O[C@@H]4COP(=O)(S)OCCn5c(nc6cc(Cl)cnc65)COP(=O)(S)O[C@@H]3[C@@H]4F)c2c(=O)[nH]1 (single isomer, unassigned) [Example 13B] | 1000 to 9990 | 10000 to 100000 | 10 to 100 | – |
| COCc1ncc2nc3n(c2n1)CCOP(=O)(S)OC[C@H]1O[C@@H](n2cnc4c(=O)[nH]c(N)nc42)[C@H](OP(=O)(S)OC3)[C@@H]1F (stereo partly drawn) [Example 40C, (1S,21R,23R,24R)-23-(2-Amino-6-oxo-6,9-dihydro-H-purin-9-yl)-24-fluoro-11-(methoxymethyl)-3,18-disulfanyl-2,4,17,19,22-pentaoxa-7,10,12,14-tetraaza-3lambda5,18lambda5-diphosphatetracyclo[19.2.1.06,14.08,13]tetracosa-6,8,10,12-tetraene-3,18-dione] | < 1000 | 1000 to 9990 | 10 to 100 | – |
| Nc1nc2c(ncn2[C@@H]2O[C@@H]3COP(=O)(S)OCCn4c(nc5c(N)ncnc54)COP(=O)(S)O[C@@H]2[C@@H]3F)c(=O)[nH]1 (single isomer, unassigned) [Example 7A] | < 1000 | 1000 to 9990 | 10 to 100 | – |
| Nc1ncnc2c1ncn2[C@@H]1O[C@@H]2COP(=O)(S)OCCn3c(nc4cncnc43)COP(=O)(S)O[C@@H]1[C@@H]2O (stereo partly drawn) [Example 8, (1R,21R,23R,24R)-23-(6-Amino-9H-purin-9-yl)-24-hydroxy-3,18-disulfanyl-2,4,17,19,22-pentaoxa-7,10,12,14-tetraaza-3lambda5,18lambda5-diphosphatetracyclo[19.2.1.06,14.08,13]tetracosa-6,8(13),9,11-tetraene-3,18-dione] | 1000 to 9990 | 10000 to 100000 | 10 to 100 | – |
| Nc1nc2c(ncn2[C@@H]2O[C@@H]3COP(=O)(S)OCCn4c(nc5c(N)ncnc54)COP(=O)(S)O[C@@H]2[C@@H]3F)c(=O)[nH]1 (single isomer, unassigned) [Example 7C] | < 1000 | < 1000 | < 1 | – |
| CO[C@H]1[C@H]2OP(=O)(S)OCc3nc4cncnc4n3CCOP(=O)(S)OC[C@H]1O[C@H]2n1cnc2c(=O)[nH]c(N)nc21 (single isomer, unassigned) [Example 27C] | < 1000 | < 1000 | < 1 | – |
| Nc1ncnc2c1ncn2[C@@H]1O[C@@H]2COP(=O)([S-])O[C@@H]3[C@H](O)[C@@H](COP([O-])(=S)O[C@H]2[C@H]1O)O[C@H]3n1cnc2c(N)ncnc21.[Na+].[Na+] (stereo partly drawn) [ADU-S100, reference compound] | – | – | – | Number of surviving mice (CT-26 tumor; Day 0): 10/10; Number of surviving mice (CT-26 tumor; Day 3): 10/10; Number of surviving mice (CT-26 tumor; Day 7): 10/10; Number of surviving mice (CT-26 tumor; Day 10): 10/10; Number of surviving mice (CT-26 tumor; Day 14): 10/10; Number of surviving mice (CT-26 tumor; Day 17): 10/10; Number of surviving mice (CT-26 tumor; Day 20): 10/10; Number of surviving mice (CT-26 tumor; Day 23): 7/10; Number of surviving mice (CT-26 tumor; Day 35): 1/10; animals with complete regression of the tumors (CT-26 tumor; by Day 30): None; EC50 [4]: > 10 µM; EC50 [5]: > 5 µM |
| Nc1nc2c(ncn2[C@@H]2O[C@@H]3COP(=O)(O)OCCn4c(nc5cncnc54)COP(=O)(O)O[C@@H]2[C@@H]3O)c(=O)[nH]1 [Example 10, (1R,21R,23R,24R)-23-(2-Amino-6-oxo-6,9-dihydro-1H-purin-9-yl)-3,18,24-trihydroxy-2,4,17,19,22-pentaoxa-7,10,12,14-tetraaza-3lambda5,18lambda5-diphosphatetracyclo[19.2.1.06,14.08,13]tetracosa-6,8,10,12-tetraene-3,18-dione] | < 1000 | 1000 to 9990 | 10 to 100 | – |
| Nc1nc2c(ncn2[C@@H]2O[C@@H]3COP(=O)(O)O[C@@H]4[C@H](O)[C@@H](COP(=O)(O)O[C@@H]2[C@@H]3O)O[C@H]4n2cnc3c(N)ncnc32)c(=O)[nH]1 [2′,2′-cGAMP, reference compound] | – | – | – | IC50 ([1]; reference compound, read-out: IC50, murine STING binding): 55 nM; IC50 ([2]; reference compound, unit printed as 'M' (sic), read-out: IC50 using the AQ STING protein): 98 nM; IC50 ([3]; reference compound, read-out: IC50 using the WT STING protein): 0.562 µM |
| Nc1nc2c(ncn2[C@@H]2O[C@@H]3COP(=O)(S)OCCn4c(nc5cncnc54)COP(=O)(S)O[C@@H]2C3(F)F)c(=O)[nH]1 (stereo partly drawn) [Example 36D, (1S,21R,23R)-23-(2-Amino-6-oxo-6,9-dihydro-1H-purin-9-yl)-24,24-difluoro-3,18-disulfanyl-2,4,17,19,22-pentaoxa-7,10,12,14-tetraaza-3lambda5,18lambda5-diphosphatetracyclo[19.2.1.06,14.08,13]tetracosa-6,8,10,12-tetraene-3,18-dione] | < 1000 | 1000 to 9990 | 10 to 100 | – |
